Data as given in ChEMBL document CHEMBL1201862, “PubChem BioAssay data set” (2004).
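Five compound concentrations were applied to cells in 96-well plates for 48 hours; endpoints were derived by simple linear interpolation of the resulting dose-response curve. GI50 = concentration required for 50% inhibition of growth.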 The source made the active and inactive calls. Cut-off read from the data, not from the text of the source: active = GI50 up to about 1.1 µM and inactive = higher.

Columns and labels:
Test in all cases: NCI tumour cell line growth inhibition, 48 h
[1] = test system: SF-268
[2] = test system: NCI-H460
[3] = test system: COLO 205
[4] = test system: HT-29
[5] = test system: LOX IMVI
[6] = test system: T47D
[7] = test system: A549
[8] = test system: SK-MEL-5
[9] = test system: HCT-15
[10] = test system: SW-620
[11] = test system: PC-3
[12] = test system: U-251
[13] = test system: KM12
[14] = test system: MOLT-4
[15] = test system: OVCAR-3
[16] = test system: SR
[17] = test system: IGROV-1
[18] = test system: OVCAR-4
[19] = test system: CAKI-1
[20] = test system: SNB-19
[21] = test system: HCC 2998
[22] = test system: TK-10
[23] = test system: K562
[24] = test system: Hs-578T
[25] = test system: SF-295
[26] = test system: NCI-H226
[27] = test system: CCRF-CEM
[28] = test system: SN12C
[29] = test system: NCI-H23
[30] = test system: A498
[31] = test system: 786-0
[32] = test system: UACC-257
[33] = test system: MDA-MB-435
[34] = test system: UO-31
[35] = test system: NCI/ADR-RES
[36] = test system: HCT-116
[37] = test system: RXF 393
[38] = test system: ACHN
[39] = test system: HOP-92
[40] = test system: MDA-N
[41] = test system: SK-MEL-28
[42] = test system: HOP-62
[43] = test system: DU-145
[44] = test system: EKVX
[45] = test system: M14
[46] = test system: UACC-62

Measured: GI50

CC(=O)O[C@H]1C(=O)[C@@]2(C)C(C(OC(=O)c3ccccc3)[C@]3(O)CC(OC(=O)[C@H](OC(=O)CCC(=O)O)C(NC(=O)c4ccccc4)c4ccccc4)C(C)=C1C3(C)C)C1(OC(C)=O)COC1C[C@@H]2O (stereo not given in full)
1530 nM: [9]
inactive: [18] 17100 nM | [19] 3750 nM
active: [1] < 16.6 nM | [2] < 10 nM | [3] < 10 nM | [4] < 10 nM | [5] < 12.2 nM | [6] < 20.3 nM | [7] < 19.9 nM | [8] < 10 nM | [10] < 10 nM | [11] < 10 nM | [12] < 10 nM | [13] < 10 nM | [14] < 15.6 nM | [15] < 10 nM | [16] < 10 nM | [17] 10.3 nM | [20] 30.6 nM | [21] 19.1 nM | [22] 265 nM | [23] < 10 nM | [24] < 10 nM

CN(CCCNC(=O)c1cn(C)c2c1ccc1ccccc12)CCCNC(=O)c1cn(C)c2c1ccc1ccccc12
1730 nM: [9]
inactive: [1] 1490 nM | [2] 1510 nM | [25] 4600 nM | [26] 1660 nM | [27] 2260 nM | [3] 1750 nM | [4] 1550 nM | [28] 1410 nM | [29] 1510 nM | [5] 1820 nM | [30] 14700 nM | [7] 1350 nM | [8] 1650 nM | [31] 1870 nM | [10] 2590 nM | [11] 1510 nM | [12] 2400 nM | [13] 1610 nM | [15] 1510 nM | [32] 1580 nM | [33] 2060 nM | [34] 1440 nM | [35] 1770 nM | [36] 1490 nM | [37] 1650 nM | [38] 1710 nM | [18] 9350 nM | [19] 1530 nM | [20] 2330 nM | [21] 1410 nM | [39] 1420 nM | [40] 1450 nM | [41] 1690 nM | [42] 1610 nM | [43] 1550 nM | [44] 1700 nM | [24] 1440 nM | [45] 1580 nM | [46] 2060 nM
active: [17] 1110 nM
